How the values were obtained:
HPK1 [1] = biological target: T1, HPK1 (Homo sapiens, UniProt Q92918); experiment: HPK1 kinase activity assay (ADP-Glo); details: HPK1 Kinase activity IC50 (nM), 1 nM HPK1, 10 μM ATP, 0.1 μg/μL MBP
T1 sequence (Q92918 1-346 limits assumed): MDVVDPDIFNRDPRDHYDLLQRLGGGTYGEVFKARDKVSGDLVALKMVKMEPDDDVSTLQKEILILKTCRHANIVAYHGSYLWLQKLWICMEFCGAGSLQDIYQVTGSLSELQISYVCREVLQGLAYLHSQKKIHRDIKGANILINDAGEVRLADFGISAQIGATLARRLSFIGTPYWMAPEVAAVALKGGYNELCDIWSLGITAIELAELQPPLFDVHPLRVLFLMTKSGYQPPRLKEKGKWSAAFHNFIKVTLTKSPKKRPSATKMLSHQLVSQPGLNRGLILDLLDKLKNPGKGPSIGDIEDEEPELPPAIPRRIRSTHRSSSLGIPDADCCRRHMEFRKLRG

HPK1 [2] = biological target: HPK1 (Homo sapiens, UniProt Q92918); experiment: SLP76 phosphorylation assay (intracellular HPK1 inhibitory activity, p-SLP76 Ser376 sandwich ELISA); details: p-SLP76 IC50(nM), Jurkat, Clone E6-1 cells; 1 h compound pre-incubation, anti-CD3 beads stimulation 20 min; SLP76 phosphorylation at S376
Target sequence in this assay (Q92918 whole entry): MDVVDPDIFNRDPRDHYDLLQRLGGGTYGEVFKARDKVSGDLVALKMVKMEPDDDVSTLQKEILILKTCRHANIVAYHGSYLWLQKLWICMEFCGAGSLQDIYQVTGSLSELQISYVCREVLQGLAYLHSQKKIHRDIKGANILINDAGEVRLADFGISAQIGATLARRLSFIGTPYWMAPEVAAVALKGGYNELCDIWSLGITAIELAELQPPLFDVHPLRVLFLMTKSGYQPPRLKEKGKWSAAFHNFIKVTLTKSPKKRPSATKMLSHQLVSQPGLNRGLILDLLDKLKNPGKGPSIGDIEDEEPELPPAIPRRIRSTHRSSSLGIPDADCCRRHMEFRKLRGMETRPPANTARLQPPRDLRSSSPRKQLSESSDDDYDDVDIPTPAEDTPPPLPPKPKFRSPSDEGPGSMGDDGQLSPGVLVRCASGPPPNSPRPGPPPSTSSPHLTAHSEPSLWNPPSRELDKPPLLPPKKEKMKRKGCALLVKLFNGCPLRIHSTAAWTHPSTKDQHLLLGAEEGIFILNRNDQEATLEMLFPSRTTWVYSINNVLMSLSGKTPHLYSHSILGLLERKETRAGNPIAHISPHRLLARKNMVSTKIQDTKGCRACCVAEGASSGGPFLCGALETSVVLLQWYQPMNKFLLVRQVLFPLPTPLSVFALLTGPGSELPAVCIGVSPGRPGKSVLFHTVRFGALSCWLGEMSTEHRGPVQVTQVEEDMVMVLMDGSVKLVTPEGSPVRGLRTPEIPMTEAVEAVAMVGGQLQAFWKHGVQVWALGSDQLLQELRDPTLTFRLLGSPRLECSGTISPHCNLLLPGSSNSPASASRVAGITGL
Experimental: Intracellular HPK1 inhibitory activity was tested by the detection of SLP76 phosphorylation at S376.
Preparation of 1000× drug stock plate: a 1000× compound stock plate was prepared. […] The compound stock plate was sealed with a sealing film and stored in a −20° C. refrigerator for later use.
Preparation of Beads wash buffer: 0.1 mL FBS and 0.4 mL 0.5 M EDTA (with a final concentration of 2 mM) were added to 100 mL PBS and stored in a 4° C. refrigerator for later use.
100× Protease Inhibitor Cocktail in 1/20 total volume was added and stored on wet ice for later use. The buffer was ready to use.
Cell inoculation and dosing: the 1000× drug stock plate was taken and melted at room temperature in the dark. […] Jurkat cells in the logarithmic growth phase were selected and collected. […] The cells were inoculated into a 96-well plate (the volume was 90 μL per well), and a blank control well (without cells inoculation, and in which 110 μL of medium was added) was set. 10 μL of a drug-containing culture medium (10×) was transferred from the 10× drug intermediate plate into the 96-well cell plate (with a final concentration of 0.1% DMSO), and set a DMSO control group (in which 0.1% DMSO was added to the treated cells), a stimulated control group (in which 10 μL of culture medium was added to treat cells) and an unstimulated group (in which 10 μL of culture medium was added to treat cells). The wells were duplicated, gently patted, mixed, and then placed into a 5% CO2 incubator at 37° C. for 1 h.
Anti-CD3 beads stimulation: Dynabeads anti-human CD3 was taken, shaken, and mixed for 60 s. The required volume of beads was pipetted, and an equal volume or at least 1 mL of washing solution was added to wash once. Fresh complete medium was then added to resuspend and adjust the density of the beads to 4×10^7/mL, and the beads were placed on ice for later use. At the end of drug pre-incubation, the cell culture plate was taken out. 10 μL Dynabeads anti-human CD3 was added to each well to treat the cells, and 10 μL the culture medium was added to the unstimulated group. The cell culture plate was shaken to mix well at 2500 rpm for 10 s, and then placed into a 5% CO2 incubator at 37° C. and continued to culture for 20 min.
Detection of p-SLP76 protein level. PathScan Phospho-SLP-76 (Ser376) Sandwich ELISA Kit was applied to detect p-SLP76 protein level. At the end of the Anti-CD3 beads stimulation, the cell culture plate was removed from the incubator. […] After lysis, the cell culture plate was centrifuged at 4° C., 400×g for 5 min. 25 μL of sample and 75 μL of sample diluent were added to each well, and the plate was placed in a 5% CO2 incubator at 37° C. for 2 h. The subsequent detection steps were carried out following the kit instructions, and the absorbance (OD value) of each well was read at 450 nm by a microplate reader.

Compound | IC50 (HPK1 [1]) [nM] | IC50 (HPK1 [2]) [nM]
Cc1[nH]c2ncc(-c3cc4c(c([C@@H]5CCCN5)c3)CN(C(=O)[C@](C)(O)C(F)(F)F)CC4)cc2c1C [Compound Z414, (S)-1-(6-(2,3-dimethyl-1H-pyrrolo[2,3-b]pyridin-5-yl)-8-((S)-pyrrolidin-2-yl)-3,4-dihydroisoquinolin-2(1H)-yl)-3,3,3-trifluoro-2-hydroxy-2-methylpropan-1-one] | 20.6 | 2610
CCNC(=O)N1CCc2cc(-c3cnc4[nH]cc(C(C)C)c4c3)cc([C@@H]3COCCN3)c2C1 [Compound Z429] | 0.41 | 159
CC(C)c1c[nH]c2ncc(-c3cc4c(c([C@@H]5COCCN5)c3)CN(C(=O)C3(O)CC3)CC4)cc12 [Compound Z433, (R)-(1-hydroxycyclopropyl)(6-(3-isopropyl-1H-pyrrolo[2,3-b]pyridin-5-yl)-8-(morpholin-3-yl)-3,4-dihydroisoquinolin-2(1H)-yl)methanone] | 0.22 | 111
Cc1c[nH]c2ncc(-c3cc4c(c([C@@H]5CCCN5)c3)CN(C(=O)c3cnn(C(C)C)c3C(F)(F)F)CC4)cc12 [Compound Z438, (S)-[1-isopropyl-5-(trifluoromethyl)-1H-pyrazol-4-yl]-[6-(3-methyl-1H-pyrrolo[2,3-b]pyridin-5-yl)-8-[pyrrolidin-2-yl]-3,4-dihydroisoquinolin-2(1H)-yl]methanone] | 1.13 | 339
Cc1c[nH]c2ncc(-c3cc4c(c([C@@H]5CCCN5)c3)CN(C(=O)N3CCC(F)(F)CC3)CC4)cc12 [Compound Z440, (S)-(4,4-difluoropiperidin-1-yl)(6-(3-methyl-1H-pyrrolo[2,3-b]pyridin-5-yl)-8(pyrrolidin-2-yl)-3,4-dihydroisoquinolin-2(1H)-yl)methanone] | 0.37 | 142

Now from value to molecule:

IC50 (HPK1 [1]) [nM] | IC50 (HPK1 [2]) [nM] | Compound
0.23 | 89.8 | C[C@](O)(C(=O)N1CCc2cc(-c3cnc4[nH]cc(Cl)c4c3)cc([C@@H]3CCCN3)c2C1)C(F)(F)F [Compound Z405, (S)-1-(6-(3-chloro-1H-pyrrolo[2,3-b]pyridin-5-yl)-8-((S)-pyrrolidin-2-yl)-3,4-dihydroisoquinolin-2(1H)-yl)-3,3,3-trifluoro-2-hydroxy-2-methylpropan-1-one]
0.19 | 61.3 | CC(C)(O)C(=O)N1CCc2cc(-c3cnc4[nH]cc(Cl)c4c3)cc([C@@H]3COCCN3)c2C1 [Compound Z418-1]
0.31 | 129 | COCC(=O)N1CCc2cc(-c3cnc4[nH]cc(C(C)C)c4c3)cc([C@@H]3COCCN3)c2C1 [Compound Z424-1]
0.58 | 119 | Cc1c[nH]c2ncc(-c3cc4c(c([C@@H]5CCCN5)c3)CN(CC3(O)CCOCC3)CC4)cc12 [Compound Z437]
0.78 | 210 | Cc1ccc(C(=O)N2CCc3cc(-c4cnc5[nH]cc(C)c5c4)cc([C@@H]4CCCN4)c3C2)nc1 [Compound Z439, (S)-(6-(3-methyl-1H-pyrrolo[2,3-b]pyridin-5-yl)-8-(pyrrolidin-2-yl)-3,4-dihydroisoquinolin-2(1H)-yl) (5-methylpyridin-2-yl)methanone]
0.52 | 197 | Cc1ccc(C(=O)N2CCc3cc(-c4cnc5[nH]cc(C)c5c4)cc([C@@H]4CCCN4)c3C2)cn1 [Compound Z441, (S)-(6-(3-methyl-1H-pyrrolo[2,3-b]pyridin-5-yl)-8-(pyrrolidin-2-yl)-3,4-dihydroisoquinolin-2(1H)-yl) (6-methylpyridin-3-yl)methanone]
1.5 | 412 | Cc1c[nH]c2ncc(-c3cc4c(c([C@@H]5CCCN5)c3)CN(CC3CCOCC3)CC4)cc12 [Compound Z442, (S)-6-(3-methyl-1H-pyrrolo[2,3-b]pyridin-5-yl)-8-(pyrrolidin-2-yl)-2-((tetrahydro-2H-pyran-4-yl)methyl)-1,2,3,4-tetrahydroisoquinoline]

Source: US20240182465A1 (GENFLEET THERAPEUTICS (SHANGHAI) INC., priority 2021, published 2024)
